Measurements published in patent US20180036289A1 (Gilead Sciences, Inc., priority 2016, published 2018).

How the values were obtained:
Assay in all cases: Cell proliferation assay (ATPlite), drug with vs without cobicistat
Format in all cases: cell-based
A-172 = A-172 cell line; 120 hours incubation
Protocol: (§1) All cell lines were obtained from the American Type Culture Collection (ATCC) Manassas, Va. (US). Master and working cell banks (MCB and WCB) were prepared by subculturing in ATCC-recommended media and freezing protocols (www.atcc.org). Cell line stocks for the assays were prepared from the WCB. The MCB, WCBs and assay stocks were prepared within respectively 3, 6 and 9 passages of the ATCC vial.
(§2) Solid powders of reference compounds were weighed on a calibrated balance and dissolved in 100% DMSO. DMSO samples were stored at room temperature. At the day of the experiment, the compound stock was diluted in 3.16 fold steps in 100% DMSO to obtain a 9-point dilution series. This was further diluted 31.6 times in 20 mM sterile Hepes buffer pH 7.4. A volume of 5 μl was transferred to the cells to generate a test concentration range from 3.16×10^−5M to 3.16×10^−9 M in duplicate. The final DMSO concentration during incubation was […] in all wells.
(§3) An assay stock was thawed and diluted in its ATCC recommended medium and dispensed in a 384-well plate, depending on the cell line used, at a concentration of 200-3200 cells per well in 45 μl medium. For each used cell line the optimal cell density is used. The margins of the plate were filled with phosphate-buffered saline. Plated cells were incubated in a humidified atmosphere of 5% CO2 at 37° C. After 24 hours, 5 μl of compound dilution was added and plates were further incubated for another 120 hours. After 120 hours, 25 μl of ATPlite 1Step™ (PerkinElmer) solution was added to each well, and subsequently shaken for 2 minutes. After 10 minutes of incubation in the dark, the luminescence was recorded on an Envision multimode reader (PerkinElmer).
(§4) IC50s were calculated by non-linear regression using IDBS XLfit 5. The percentage growth after 120 h (%-growth) was calculated as follows: 100%×(luminescencet=120h/luminescenceuntreated,t=120h). This was fitted to the ^10log compound concentration (conc) by a 4-parameter logistics curve: %−growth=bottom+(top−bottom)/(1+10^(log IC50-conc)*hill)), where hill is the Hill-coefficient, and bottom and top the asymptotic minimum and maximum cell growth that the compound allows in that assay.

A-498 = A-498 cell line; 120 hours incubation
Protocol: as §1, §2, §3, §4

A388 = A388 cell line; 120 hours incubation
Protocol: as §1, §2, §3, §4

AsPC-1 = AsPC-1 cell line; 120 hours incubation
Protocol: as §1, §2, §3, §4

BT-20 = BT-20 cell line; 120 hours incubation
Protocol: as §1, §2, §3, §4

BxPC-3 = BxPC-3 cell line; 120 hours incubation
Protocol: as §1, §2, §3, §4

C-33 A = C-33 A cell line; 120 hours incubation
Protocol: as §1, §2, §3, §4

CAL 27 = CAL 27 cell line; 120 hours incubation
Protocol: as §1, §2, §3, §4

CCRF-CEM = CCRF-CEM cell line; 120 hours incubation
Protocol: as §1, §2, §3, §4

DU 145 = DU 145 cell line; 120 hours incubation
Protocol: as §1, §2, §3, §4

Daoy = Daoy cell line; 120 hours incubation
Protocol: as §1, §2, §3, §4

DoTc2 4510 = DoTc2 4510 cell line; 120 hours incubation
Protocol: as §1, §2, §3, §4

FaDu = FaDu cell line; 120 hours incubation
Protocol: as §1, §2, §3, §4

J82 = J82 cell line; 120 hours incubation
Protocol: as §1, §2, §3, §4

KU812 = KU812 cell line; 120 hours incubation
Protocol: as §1, §2, §3, §4

LNCaP FGC = LNCaP FGC cell line; 120 hours incubation
Protocol: as §1, §2, §3, §4

MCF7 = MCF7 cell line; 120 hours incubation
Protocol: as §1, §2, §3, §4

MIA PaCa-2 = MIA PaCa-2 cell line; 120 hours incubation
Protocol: as §1, §2, §3, §4

MOLT-4 = MOLT-4 cell line; 120 hours incubation
Protocol: as §1, §2, §3, §4

NCI-H82 = NCI-H82 cell line; 120 hours incubation
Protocol: as §1, §2, §3, §4

RT4 = RT4 cell line; 120 hours incubation
Protocol: as §1, §2, §3, §4

SHP-77 = SHP-77 cell line; 120 hours incubation
Protocol: as §1, §2, §3, §4

SK-N-AS = SK-N-AS cell line; 120 hours incubation
Protocol: as §1, §2, §3, §4

SNU-C2B = SNU-C2B cell line; 120 hours incubation
Protocol: as §1, §2, §3, §4

SW480 = SW480 cell line; 120 hours incubation
Protocol: as §1, §2, §3, §4

SW620 = SW620 cell line; 120 hours incubation
Protocol: as §1, §2, §3, §4

SW948 = SW948 cell line; 120 hours incubation
Protocol: as §1, §2, §3, §4

T24 = T24 cell line; 120 hours incubation
Protocol: as §1, §2, §3, §4

U-2 OS = U-2 OS cell line; 120 hours incubation
Protocol: as §1, §2, §3, §4

VA-ES-BJ = VA-ES-BJ cell line; 120 hours incubation
Protocol: as §1, §2, §3, §4

Row | SMILES | Fold change in IC50 (IC50 [Drug + Cobicistat]/IC50 [Drug]) (A-172) [fold] | Fold change in IC50 (IC50 [Drug + Cobicistat]/IC50 [Drug]) (A-498) [fold] | Fold change in IC50 (IC50 [Drug + Cobicistat]/IC50 [Drug]) (A388) [fold] | Fold change in IC50 (IC50 [Drug + Cobicistat]/IC50 [Drug]) (AsPC-1) [fold] | Fold change in IC50 (IC50 [Drug + Cobicistat]/IC50 [Drug]) (BT-20) [fold] | Fold change in IC50 (IC50 [Drug + Cobicistat]/IC50 [Drug]) (BxPC-3) [fold] | Fold change in IC50 (IC50 [Drug + Cobicistat]/IC50 [Drug]) (C-33 A) [fold] | Fold change in IC50 (IC50 [Drug + Cobicistat]/IC50 [Drug]) (CAL 27) [fold] | Fold change in IC50 (IC50 [Drug + Cobicistat]/IC50 [Drug]) (CCRF-CEM) [fold] | Fold change in IC50 (IC50 [Drug + Cobicistat]/IC50 [Drug]) (DU 145) [fold] | Fold change in IC50 (IC50 [Drug + Cobicistat]/IC50 [Drug]) (Daoy) [fold] | Fold change in IC50 (IC50 [Drug + Cobicistat]/IC50 [Drug]) (DoTc2 4510) [fold] | Fold change in IC50 (IC50 [Drug + Cobicistat]/IC50 [Drug]) (FaDu) [fold] | Fold change in IC50 (IC50 [Drug + Cobicistat]/IC50 [Drug]) (J82) [fold] | Fold change in IC50 (IC50 [Drug + Cobicistat]/IC50 [Drug]) (KU812) [fold] | Fold change in IC50 (IC50 [Drug + Cobicistat]/IC50 [Drug]) (LNCaP FGC) [fold] | Fold change in IC50 (IC50 [Drug + Cobicistat]/IC50 [Drug]) (MCF7) [fold] | Fold change in IC50 (IC50 [Drug + Cobicistat]/IC50 [Drug]) (MIA PaCa-2) [fold] | Fold change in IC50 (IC50 [Drug + Cobicistat]/IC50 [Drug]) (MOLT-4) [fold] | Fold change in IC50 (IC50 [Drug + Cobicistat]/IC50 [Drug]) (NCI-H82) [fold] | also measured
1 | CC(=O)O[C@H]1C(=O)[C@@]2(C)[C@H]([C@H](OC(=O)c3ccccc3)[C@]3(O)C[C@H](OC(=O)[C@H](O)[C@@H](NC(=O)c4ccccc4)c4ccccc4)C(C)=C1C3(C)C)[C@]1(OC(C)=O)CO[C@@H]1C[C@@H]2O [paclitaxel] | 1.7 | 2.8 | 2.7 | 2.2 | 1.5 | 3.2 | 1.3 | 2.0 | 2.6 | 4.8 | 3.4 | 3.4 | 1.3 | 2.9 | 4.6 | 2.5 | 3.3 | 3.0 | 2.1 | 2.4 | Fold change in IC50 (IC50 [Drug + Cobicistat]/IC50 [Drug]) (RT4): 3.7 fold; Fold change in IC50 (IC50 [Drug + Cobicistat]/IC50 [Drug]) (SHP-77): 2.3 fold; Fold change in IC50 (IC50 [Drug + Cobicistat]/IC50 [Drug]) (SK-N-AS): 2.3 fold; Fold change in IC50 (IC50 [Drug + Cobicistat]/IC50 [Drug]) (SNU-C2B): 3.0 fold; Fold change in IC50 (IC50 [Drug + Cobicistat]/IC50 [Drug]) (SW480): 1.9 fold; Fold change in IC50 (IC50 [Drug + Cobicistat]/IC50 [Drug]) (SW620): 1.8 fold; Fold change in IC50 (IC50 [Drug + Cobicistat]/IC50 [Drug]) (SW948): 2.6 fold; Fold change in IC50 (IC50 [Drug + Cobicistat]/IC50 [Drug]) (T24): 4.4 fold; Fold change in IC50 (IC50 [Drug + Cobicistat]/IC50 [Drug]) (U-2 OS): 3.2 fold; Fold change in IC50 (IC50 [Drug + Cobicistat]/IC50 [Drug]) (VA-ES-BJ): 2.8 fold
2 | CC[C@]1(O)C[C@@H]2CN(CCc3c([nH]c4ccccc34)[C@@](C(=O)OC)(c3cc4c(cc3OC)N(C)[C@H]3[C@@](O)(C(=O)OC)[C@H](OC(C)=O)[C@]5(CC)C=CCN6CC[C@]43[C@@H]65)C2)C1 [vinblastine] | 3.0 | 3.8 | 4.7 | 5.6 | 2.7 | 2.4 | 1.9 | 2.8 | 3.3 | 5.4 | 5.7 | 5.0 | 2.2 | 4.2 | 4.4 | 4.0 | 5.3 | 3.7 | 2.8 | 3.5 | Fold change in IC50 (IC50 [Drug + Cobicistat]/IC50 [Drug]) (RT4): 4.9 fold; Fold change in IC50 (IC50 [Drug + Cobicistat]/IC50 [Drug]) (SHP-77): 2.0 fold; Fold change in IC50 (IC50 [Drug + Cobicistat]/IC50 [Drug]) (SK-N-AS): 3.7 fold; Fold change in IC50 (IC50 [Drug + Cobicistat]/IC50 [Drug]) (SNU-C2B): 4.5 fold; Fold change in IC50 (IC50 [Drug + Cobicistat]/IC50 [Drug]) (SW480): 3.3 fold; Fold change in IC50 (IC50 [Drug + Cobicistat]/IC50 [Drug]) (SW620): 2.7 fold; Fold change in IC50 (IC50 [Drug + Cobicistat]/IC50 [Drug]) (SW948): 4.2 fold; Fold change in IC50 (IC50 [Drug + Cobicistat]/IC50 [Drug]) (T24): 5.2 fold; Fold change in IC50 (IC50 [Drug + Cobicistat]/IC50 [Drug]) (U-2 OS): 4.4 fold; Fold change in IC50 (IC50 [Drug + Cobicistat]/IC50 [Drug]) (VA-ES-BJ): 4.3 fold
3 | CC[C@]1(O)C[C@H]2CN(CCc3c([nH]c4ccccc34)[C@@](C(=O)OC)(c3cc4c(cc3OC)N(C=O)[C@H]3[C@@](O)(C(=O)OC)[C@H](OC(C)=O)[C@]5(CC)C=CCN6CC[C@]43[C@@H]65)C2)C1 [vincristine] | 3.3 | 3.2 | 3.7 | 3.1 | 3.2 | 4.1 | 2.7 | 2.6 | 3.6 | 3.8 | 4.6 | 6.2 | 2.8 | 3.6 | 3.7 | 3.6 | 4.8 | 3.6 | 2.1 | 3.1 | Fold change in IC50 (IC50 [Drug + Cobicistat]/IC50 [Drug]) (RT4): 4.0 fold; Fold change in IC50 (IC50 [Drug + Cobicistat]/IC50 [Drug]) (SHP-77): 2.6 fold; Fold change in IC50 (IC50 [Drug + Cobicistat]/IC50 [Drug]) (SK-N-AS): 4.7 fold; Fold change in IC50 (IC50 [Drug + Cobicistat]/IC50 [Drug]) (SNU-C2B): 2.4 fold; Fold change in IC50 (IC50 [Drug + Cobicistat]/IC50 [Drug]) (SW480): 3.3 fold; Fold change in IC50 (IC50 [Drug + Cobicistat]/IC50 [Drug]) (SW620): 3.0 fold; Fold change in IC50 (IC50 [Drug + Cobicistat]/IC50 [Drug]) (SW948): 3.5 fold; Fold change in IC50 (IC50 [Drug + Cobicistat]/IC50 [Drug]) (T24): 4.4 fold; Fold change in IC50 (IC50 [Drug + Cobicistat]/IC50 [Drug]) (U-2 OS): 3.5 fold; Fold change in IC50 (IC50 [Drug + Cobicistat]/IC50 [Drug]) (VA-ES-BJ): 5.4 fold
